Experimental data as given in patent US8981053B2, “Molecules specifically binding pancreatic beta cells biomarkers” (Universite de Mons, priority 2011, dated 2015).
Where no end group is shown, it is not given here.

Key:
FXYD2-gamma-a subunit = FXYD2-gamma-a subunit (Homo sapiens, UniProt P54710); assay: Dissociation constant (Kd) determination of phage display clone and synthetized peptides; conditions: binding to FXYD2-gamma-a subunit
Excerpt: Commercially available peptide libraries were screened and peptides binding the FXYD2-gamma-a subunit were retained for further analysis. The FXYD2-gamma-a is a regulating subunit of the Na—K-ATPase that contains 66 amino acids, from which 11 are specific to human beta-cells (Flamez D et al. DOI 10.1007/s00125-010-1714-z). Commercially available linear heptapeptide libraries were screened via M 13 phage display methodology. After 4 screening rounds, 42 clones were selected for further characterization: sequencing and dissociation constant (Kd) determination. […] The latter were synthetized either separately (called P89 and P90) or fused via a short sequence of the pill protein (called P88). All three synthetized peptides were further tested. […]

[1] = target: T1, FXYD2-gamma-a regulatory subunit expressed by CAPAN-2 cells (Homo sapiens, UniProt P54710); assay: Immunocytochemistry on CAPAN2 and PANC1 cells; format: cell-based; conditions: CAPAN2 cells versus PANC1 cells
T1 construct: the FXYD2-gamma-a regulatory subunit expressed by CAPAN-2 cells; endogenous in cells; host or cells: CAPAN-2 cells (PANC1 cells as comparison)
Procedure: (§1) The specificity of P88, P89, P90 and a polyclonal antibody against the N-terminal sequence of FXYD2-gamma-a protein to the FXYD2-gamma-a regulatory subunit expressed by CAPAN-2 cells was checked by immunocytochemistry and immunofluorescence tests.
Immunocytochemistry tests were performed using the biotinylated peptides. An anti-biotine antibody was used and was recognized by a secondary antibody coupled to the peroxidase. The polyclonal antibody against the N-terminal sequence of FXYD2-gamma-a protein to the FXYD2-gamma-a was detected using a secondary biotinylated antibody that fixes a complex containing streptavidin, biotin and peroxidase. The latter gives a brown color in the presence of 3,3′-diaminobenzidine (DAB).

CAPAN2 cells [2] = assay: MRI of CAPAN2 cells labeled with contrast agents; format: cell-based, human; conditions: for MRI labeling of CAPAN2 cells: 2×10^6 to 0.1×10^6 cells per 100 μl; for transverse relaxation rates of labeled CAPAN2 cells compared to USPIO-PEG: independent from the concentration of CAPAN2 cells
Procedure: (§2) CAPAN2 cells were labeled with USPIO nanoparticles coupled to P88 or with carboxy silane coated iron oxide nanoparticles coupled to P88. USPIO-polyethylene glycol (PEG) were used as negative contrast agent. Labeled cells were visualized by MRI and the concentration of contrast agents bound to the cells was determined by iron dosage.
CAPAN2 cells were used with different concentrations ranging from 2×10^6 cell per 100 μl to 0.1×10^6 cells per 100 μl corresponding respectively to the beta cell concentration in healthy pancreas and in a pancreas with diabetes. […] The labeling was also clearly observed with the lowest CAPAN2 cell concentration.

CAPAN2 cells [3] = assay: Iron dosage of CAPAN2 cells labeled with contrast agents; format: cell-based, human; conditions: contrast agent 1 mM, 2 mM and 3 mM
Procedure: as §2
This confirms the specificity of P88 to the pancreatic beta cells biomarker FXYD2-gamma-a and the efficacy of using the P88 coupled to a contrast agent in MRI.

human Langerhans islets = assay: MRI of human Langerhans islets labeled with contrast agents; format: cell-based; conditions: for transverse relaxation rates of labeled human Langerhans islets compared to USPIO-PEG: independent from concentration and purity of islets
Procedure: Contrast agents USPIO and carboxy silane coated iron oxide nanoparticles coupled to the peptide P88 were tested for their interaction with the human Langerhans islets and compared to the use of USPIO-PEG contrast agent.

[4] = test system: beta cells of Langerhans islets; assay: Co-localization of contrast agent labeled Langerhans islets with insulin (anti-PEG antibody); format: cell-based, human; conditions: fluorescein, insulin Texas red
Procedure: Co-localization tests were performed where antibodies anti-PEG were added to the Langrehans islets labeled with USPIO-P88 nanoparticles, the Langrehans islets labeled with carboxy silane coated iron oxide nanoparticles coupled to the peptide P88 and to the Langrehans islets labeled with USPIO-PEG. A secondary antibody that recognizes the anti-PEG antibody and coupled to the fluorescein was also used which created a green fluorescence.
Insulin was labeled with primary anti-insulin antibody and a secondary antibody coupled to Texas red which created a red fluorescence.

[5] = target: T1, FXYD2-gamma-a regulatory subunit expressed by CAPAN-2 cells; assay: Immunofluorescence on CAPAN2 and PANC1 cells with ImageJ semi-quantitative analysis (RRFL); format: cell-based
Excerpt: as §1
Each secondary antibody described above was coupled to a fluorophore such as fluorescein which gives a green color at a certain wavelength. DAPI (4′,6-diamidino-2-phenylindole) was also used in order to stain the cell nuclei in blue. This allowed us to compare the localization of the blue and the green coloration. […] Therefore, P88 interacts specifically with CAPAN2 cells and is thus specific to the FXYD2-gamma-a biomarker.
The images obtained by immunofluorescence test were analyzed using ImageJ software in order to semi-quantitatively evaluate the fluorescent labeling. The following equation was used to calculate the relative rate of fluorescent labeling (RRFL): RRFL=(SIsample/Ncells)/(SIblanc/Ncells) Wherein SI is the signal intensity, N is the number of cells and blanc is the negative control sample.
The percentage of RRFL obtained when P88 was used at two different concentrations (5 μM and 10 μM) was determined compared to the RRFL obtained when the polyclonal antibody against the N-terminal sequence of FXYD2-gamma-a was used (FIG. 3 B). The ratio between the RRFL measured in CAPAN2 cells and the RRFL measured in PANC1 cells was also determined (FIG. 3 C). […] The ratio CAPAN2/PANC1 confirmed the labeling specificity of P88 compared to the used polyclonal antibody.

[6] = test system: human pancreatic Langerhans islets; assay: Immunohistochemistry on human pancreatic histological sections; format: cell-based
Procedure: (§3) A co-localization of peptide P88, insulin and glucagon was performed on human pancreatic histological sections using immunohistochemistry and immunofluorescence tests. Insulin is a hormone produced by the beta cells of Langerhans islets while glucagon is produced by the alpha cells of the same islets.
The marking is the same as the one obtained when the antibody anti-insulin was used (FIG. 4).
In other immunohistochemistry tests, the anti-FXYD2-gamma-a polyclonal antibody was used. […] Therefore, P88 is highly specific to the pancreatic beta cells FXYD2-gamma-a biomarker.

[7] = test system: human pancreatic beta cells; assay: Immunofluorescence co-localization on human pancreatic histological sections; format: cell-based
Procedure: as §3
Immunofluorescence tests were performed on human pancreatic histological sections such as P88 was detected together with insulin or glucagon. In another test, insulin was detected together with the polyclonal antibody against the N-terminal sequence of FXYD2-gamma-a. Insulin (specific of beta cells) was detected with a primary anti-insulin antibody which was detected using a secondary antibody coupled to Texas Red. Glucagon was detected with a primary anti-glucagon antibody which was also detected using a secondary antibody coupled to Texas Red. The latter gives red color to the antigenic sites. Biotinylated P88 was detected using a primary antibody anti-biotin and a secondary antibody coupled to fluorescein. The polyclonal antibody against the N-terminal sequence of FXYD2-gamma-a was also detected using a secondary antibody coupled to fluorescein. Antigenic sites marked by fluorescein are visualized in green color. DAPI was also used in order to stain the cells nuclei in blue. Pictures obtained with each staining (red, green and blue) were superimposed.

[8] = target: FXYD2-gamma-a regulatory subunit expressed by CAPAN-2 cells and human pancreatic beta cells (human) (UniProt P54710); assay: immunofluorescence on CAPAN2 cells, ImageJ semi-quantitative analysis, P88 at 5 µM
[9] = target: FXYD2-gamma-a regulatory subunit expressed by CAPAN-2 cells and human pancreatic beta cells (human) (UniProt P54710); assay: immunofluorescence on CAPAN2 cells, ImageJ semi-quantitative analysis, P88 at 10 µM
[10] = target: FXYD2-gamma-a subunit (target of the phage display screening and Kd determination) (human) (UniProt P54710); assay: synthetic peptide; method not stated
[11] = target: FXYD2-gamma-a subunit (target of the phage display screening and Kd determination) (human) (UniProt P54710); assay: phage clone characterisation after M13 phage display screening; method not stated

Sequence of FXYD2-gamma-a subunit (P54710 whole entry, the tested form may be a part): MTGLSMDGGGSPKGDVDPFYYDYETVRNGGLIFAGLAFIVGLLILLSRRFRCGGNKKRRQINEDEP
T1 sequence (P54710 whole entry): as the sequence (P54710 whole entry, the tested form may be a part) above
Sequence of FXYD2-gamma-a regulatory subunit expressed by CAPAN-2 cells and human pancreatic beta cells (human) (P54710 whole entry): as the sequence (P54710 whole entry, the tested form may be a part) above
Sequence of FXYD2-gamma-a subunit (target of the phage display screening and Kd determination) (human) (P54710 whole entry): as the sequence (P54710 whole entry, the tested form may be a part) above

NTHHTSM [P90]
dissociation constant (Kd) (FXYD2-gamma-a subunit): could not be determined
specificity of interaction (brown DAB coloration) [1]: less specific compared to P88

USPIO-P88: USPIO nanoparticles coupled to P88, MRI contrast agent (LPLSRHYGGGSVPFYSHSNTHHTSM; also: coupled to USPIO nanoparticles, site not given here)
MRI labeling of CAPAN2 cells (CAPAN2 cells [2]): clear labeling
transverse relaxation rates of labeled CAPAN2 cells compared to USPIO-PEG (CAPAN2 cells [2]): higher
amount of iron captured by the CAPAN2 cells compared to USPIO-PEG (CAPAN2 cells [3]): always higher
MRI labeling of human Langerhans islets compared to USPIO-PEG (human Langerhans islets; also at low concentration and in non-pure islet samples): clear difference
transverse relaxation rates of labeled human Langerhans islets compared to USPIO-PEG (human Langerhans islets): higher
co-localization of labeled Langerhans islets with the red fluorescence of insulin [4]: perfectly co-localized

LPLSRHYGGGSVPFYSHSNTHHTSM [P88]
Kd (FXYD2-gamma-a subunit): 1890 nM
specificity of interaction (brown DAB coloration) [1]: more localized in the CAPAN2 cells
RRFL higher than the RRFL produced by the anti-FXYD2-gamma-a polyclonal antibody ([5]; CAPAN2 cells, 5 μM): 791%
RRFL higher than the RRFL produced by the anti-FXYD2-gamma-a polyclonal antibody ([5]; CAPAN2 cells, 10 μM): 945%
green fluorescence pattern in CAPAN 2 cells ([5]; CAPAN2 cells, DAPI nuclear stain): correspondent to the blue fluorescent pattern of DAPI
green fluorescence in PANC1 cells ([5]; PANC1 cells): few green fluorescent spots
marking of pancreatic Langerhans islets [6]: high specific marking
co-localization with glucagon (anti-glucagon antibody) [7]: did not co-localize
co-localization with insulin (anti-insulin antibody) [7]: perfect co-localization

silane coated iron oxide nanoparticles-P88: carboxy silane coated iron oxide nanoparticles coupled to P88 (LPLSRHYGGGSVPFYSHSNTHHTSM; also: coupled to carboxy silane coated iron oxide nanoparticles, site not given here)
MRI labeling of CAPAN2 cells (CAPAN2 cells [2]): clear labeling
transverse relaxation rates of labeled CAPAN2 cells compared to USPIO-PEG (CAPAN2 cells [2]): higher
amount of iron captured by the CAPAN2 cells compared to USPIO-PEG (CAPAN2 cells [3]): always higher
transverse relaxation rates of labeled human Langerhans islets compared to USPIO-PEG (human Langerhans islets): higher
co-localization of labeled Langerhans islets with the red fluorescence of insulin [4]: perfectly co-localized

LPLSRHY [P89, LPLSRHY]
specificity of interaction (brown DAB coloration) [1]: less specific compared to P88

LPLSRHYGGGSVPFYSHSNTHHTSM (also: biotinylated in ICC/IHC/IF tests, site not given here) [P88]
relative rate of fluorescent labeling (RRFL) in CAPAN2 cells against the anti-FXYD2-gamma-a polyclonal antibody [8]: 791 % higher
relative rate of fluorescent labeling (RRFL) in CAPAN2 cells against the anti-FXYD2-gamma-a polyclonal antibody [9]: 945 % higher

LPLSRHY (also: biotinylated in ICC tests, site not given here) [P89]
Kd [10]: 109000 nM

B1: selected M13 phage clone carrying 2 peptides (peptide)
peptide 1: LPLSRHY
peptide 2: NTHHTSM
Kd [11]: 9.3 nM
